From US6632799B2, “Injectable ready-to-use solutions containing an antitumor anthracycline glycoside” (Pharmacia & Upjohn Company, priority 1985, dated 2003)
Where a name gives a salt, the structure may show the parent alone.

How the values were obtained:
[1] = Shelf-life (t 90%) forecast of doxorubicin.HCl 2 mg/ml solution in 5% dextrose adjusted to pH 3.0; format: physicochemical; details: for Kobs × 10^3: observed
Experimental: Applying the equation, the rate constants for the pseudo-first order reactions at 4° C., 8° C., and 15° C. and 27° C. were calculated, together with the expected t90% at these temperatures.

[2] = pH-stability profile at 55° C. of doxorubicin.HCl solutions in sterile water, 5% dextrose, 0.9% saline; format: physicochemical
[3] = 5% dextrose pH 3.0, 35° C., 4 days
[4] = 5% dextrose pH 3.0, 35° C., 8 days
[5] = 5% dextrose pH 3.0, 35° C., 14 days
[6] = 5% dextrose pH 3.0, 35° C., 17 days
[7] = 5% dextrose pH 3.0, 35° C., 21 days
[8] = 5% dextrose pH 3.0, 45° C., 4 days
[9] = 5% dextrose pH 3.0, 45° C., 8 days
[10] = 5% dextrose pH 3.0, 45° C., 14 days
[11] = 5% dextrose pH 3.0, 45° C., 21 days
[12] = 5% dextrose pH 3.0, 55° C., 17 days
[13] = 5% dextrose pH 3.0, 55° C., 21 days
[14] = 5% dextrose pH 3.0, 60° C., 2 days
[15] = 5% dextrose pH 3.0, 60° C., 4 days
[16] = 5% dextrose pH 3.0, 60° C., 6 days
[17] = 5% dextrose pH 3.0, 60° C., 8 days

In the case of `COc1cccc2c1C(=O)c1c(O)c3c(c(O)c1C2=O)C[C@@](O)(C(=O)CO)C[C@@H]3O[C@H]1C[C@H](N)[C@H](O)[C@H](C)O1` [Doxorubicin.HCl, doxorubicin hydrochloride], the “commercially meaningful shelf-life (t90% forecasts)” value ([1]; 2 mg/ml pH 3.0 5% dextrose solution) is reported as “only if the product is stored in a refrigerator”, the t90% ([1]; 5% dextrose pH 3.0, 27° C., Arrhenius) is reported as 82 days and the Doxorubicin.HCl assay ([1]; 5% dextrose pH 3.0, 35° C., 0 days) is reported as 2.114 mg/mL. It also gave a Doxorubicin.HCl assay [1, 3] of 2.044 mg/mL, a pH [1, 3] of 2.98 and a Doxorubicin.HCl assay [1, 4] of 2.034 mg/mL. The pH [1, 4] was 2.94, the Doxorubicin.HCl assay [1, 5] was 2.015 mg/mL and the pH [1, 5] was 2.95. The Doxorubicin.HCl assay [1, 6] was 1.934 mg/mL, the pH [1, 6] was 2.90 and the Doxorubicin.HCl assay [1, 7] was 1.859 mg/mL. The pH [1, 7] was 2.94, the “Kobs × 10^3” value ([1]; 5% dextrose pH 3.0, 35° C.) was 4.190 1/days and the Doxorubicin.HCl assay ([1]; 5% dextrose pH 3.0, 45° C., 0 days) was 2.114 mg/mL. For the same compound, the Doxorubicin.HCl assay [1, 8] was 1.940 mg/mL, the pH [1, 8] was 2.97 and the Doxorubicin.HCl assay [1, 9] was 1.870 mg/mL. The pH [1, 9] was 2.98, the Doxorubicin.HCl assay [1, 10] was 1.684 mg/mL and the pH [1, 10] was 2.95. For the same compound, the pH ([1]; 5% dextrose pH 3.0, 45° C., 17 days) was 2.96, the Doxorubicin.HCl assay [1, 11] was 1.410 mg/mL and the pH [1, 11] was 2.96. For the same compound, the “Kobs × 10^3” value ([1]; 5% dextrose pH 3.0, 45° C.) was 14.55 1/days, the Doxorubicin.HCl assay ([1]; 5% dextrose pH 3.0, 55° C., 0 days) was 2.114 mg/mL and the pH ([1]; 5% dextrose pH 3.0, 55° C., 4 days) was 2.95. The pH ([1]; 5% dextrose pH 3.0, 55° C., 8 days) was 2.92, the pH ([1]; 5% dextrose pH 3.0, 55° C., 14 days) was 2.99 and the Doxorubicin.HCl assay [1, 12] was 0.957 mg/mL. For the same compound, the pH [1, 12] was 2.91, the Doxorubicin.HCl assay [1, 13] was 0.796 mg/mL and the pH [1, 13] was 2.95. The “Kobs × 10^3” value ([1]; 5% dextrose pH 3.0, 55° C.) was 58.11 1/days, the Doxorubicin.HCl assay ([1]; 5% dextrose pH 3.0, 60° C., 0 days) was 2.114 mg/mL and the Doxorubicin.HCl assay [1, 14] was 1.752 mg/mL. For the same compound, the pH [1, 14] was 2.96, the Doxorubicin.HCl assay [1, 15] was 1.393 mg/mL and the pH [1, 15] was 2.98. For the same compound, the Doxorubicin.HCl assay [1, 16] was 1.176 mg/mL, the pH [1, 16] was 2.96 and the Doxorubicin.HCl assay [1, 17] was 0.925 mg/mL. The pH [1, 17] was 2.97, the “Kobs × 10^3” value ([1]; 5% dextrose pH 3.0, 60° C.) was 102.6 1/days and the “pH range of maximum stability” value ([2]; 2 mg/ml, 55° C., all three media, ±0.2) was 3.0-3.5. The “Kobs × 10^3” value ([2]; 0.9% saline, Acetate pH 4.0, 55° C.) was 215.7 1/days, the “Kobs × 10^3” value ([2]; 0.9% saline, Acetate pH 5.0, 55° C.) was 301.2 1/days and the “Kobs × 10^3” value ([2]; 0.9% saline, Acetate pH 5.5, 55° C.) was 430.3 1/days. For the same compound, the “Kobs × 10^3” value ([2]; 0.9% saline, Formate pH 3.5, 55° C.) was 148.1 1/days, the “Kobs × 10^3” value ([2]; 0.9% saline, Glycine-HCl pH 2.0, 55° C.) was 362.4 1/days and the “Kobs × 10^3” value ([2]; 0.9% saline, Glycine-HCl pH 2.5, 55° C.) was 276.5 1/days. The “Kobs × 10^3” value ([2]; 0.9% saline, Glycine-HCl pH 3.0, 55° C.) was 133.2 1/days, the Doxorubicin.HCl % stability ([2]; 0.9% saline, pH 2.5 buffer, 55° C., 0 hours) was 100.0% and the Doxorubicin.HCl % stability ([2]; 0.9% saline, pH 2.5 buffer, 55° C., 16 hours) was 85.8%. For the same compound, the Doxorubicin.HCl % stability ([2]; 0.9% saline, pH 2.5 buffer, 55° C., 24 hours) was 82.3%, the Doxorubicin.HCl % stability ([2]; 0.9% saline, pH 2.5 buffer, 55° C., 34 hours) was 70.3% and the Doxorubicin.HCl % stability ([2]; 0.9% saline, pH 2.5 buffer, 55° C., 48 hours) was 58.1%. The Doxorubicin.HCl % stability ([2]; 0.9% saline, pH 3.0 buffer, 55° C., 0 hours) was 100.0%, the Doxorubicin.HCl % stability ([2]; 0.9% saline, pH 3.0 buffer, 55° C., 16 hours) was 91.2% and the Doxorubicin.HCl % stability ([2]; 0.9% saline, pH 3.0 buffer, 55° C., 24 hours) was 88.8%. It also gave a Doxorubicin.HCl % stability ([2]; 0.9% saline, pH 3.0 buffer, 55° C., 48 hours) of 78.8%, a Doxorubicin.HCl % stability ([2]; 0.9% saline, pH 3.0 buffer, 55° C., 72 hours) of 69.0% and a Doxorubicin.HCl % stability ([2]; 0.9% saline, pH 3.0 buffer, 55° C., 96 hours) of 60.4%. For the same compound, the Doxorubicin.HCl % stability ([2]; 0.9% saline, pH 3.0 buffer, 55° C., 120 hours) was 50.3%, the Doxorubicin.HCl % stability ([2]; 0.9% saline, pH 3.5 buffer, 55° C., 0 hours) was 100.0% and the Doxorubicin.HCl % stability ([2]; 0.9% saline, pH 3.5 buffer, 55° C., 16 hours) was 91.4%. The Doxorubicin.HCl % stability ([2]; 0.9% saline, pH 3.5 buffer, 55° C., 24 hours) was 87.2%, the Doxorubicin.HCl % stability ([2]; 0.9% saline, pH 3.5 buffer, 55° C., 48 hours) was 77.3% and the Doxorubicin.HCl % stability ([2]; 0.9% saline, pH 3.5 buffer, 55° C., 96 hours) was 58.9%. For the same compound, the Doxorubicin.HCl % stability ([2]; 0.9% saline, pH 3.5 buffer, 55° C., 120 hours) was 46.0%, the “Kobs × 10^3” value ([2]; 5% dextrose, Acetate pH 4.0, 55° C.) was 209.7 1/days and the “Kobs × 10^3” value ([2]; 5% dextrose, Acetate pH 5.0, 55° C.) was 273.1 1/days. The “Kobs × 10^3” value ([2]; 5% dextrose, Acetate pH 5.5, 55° C.) was 453.7 1/days, the “Kobs × 10^3” value ([2]; 5% dextrose, Formate pH 3.5, 55° C.) was 132.0 1/days and the “Kobs × 10^3” value ([2]; 5% dextrose, Glycine-HCl pH 2.0, 55° C.) was 323.8 1/days. For the same compound, the “Kobs × 10^3” value ([2]; 5% dextrose, Glycine-HCl pH 2.5, 55° C.) was 138.7 1/days, the “Kobs × 10^3” value ([2]; 5% dextrose, Glycine-HCl pH 3.0, 55° C.) was 100.5 1/days and the Doxorubicin.HCl % stability ([2]; 5% dextrose, pH 2.0 buffer, 55° C., 0 hours) was 100.0%. For the same compound, the Doxorubicin.HCl % stability ([2]; 5% dextrose, pH 2.0 buffer, 55° C., 8 hours) was 92.8%, the Doxorubicin.HCl % stability ([2]; 5% dextrose, pH 2.0 buffer, 55° C., 16 hours) was 84.4% and the Doxorubicin.HCl % stability ([2]; 5% dextrose, pH 2.0 buffer, 55° C., 24 hours) was 75.9%. It also gave a Doxorubicin.HCl % stability ([2]; 5% dextrose, pH 2.0 buffer, 55° C., 34 hours) of 68.3% and a Doxorubicin.HCl % stability ([2]; 5% dextrose, pH 2.0 buffer, 55° C., 48 hours) of 54.1%.
